{"source": "patent US6936600B2", "about": "“Sorbitol dehrydrogenase inhibitors” (Pfizer Inc, priority 1999, dated 2005)", "data": [{"values": [{"smiles": "C[C@@H](O)c1nccc(N2C[C@H]3CCC[C@@H](C2)N3c2ccnc([C@@H](C)O)n2)n1", "note": "(stereo in doubt)", "melting point": "151 to 158 °C"}, {"smiles": "C[C@@H](O)c1nccc(N2CCC(C3CCN(c4ccnc([C@@H](C)O)n4)CC3)CC2)n1", "note": "[Example 3, 1R-(4-{1′-[2-(1R-Hydroxy-ethyl)-pyrimidin-4-yl]-[4,4′]bipiperidinyl-1-yl}-pyrimidin-2-yl)-ethanol]", "melting point": "144 to 153 °C"}, {"smiles": "C[C@@H]1CN(c2ccnc([C@@H](C)O)n2)C[C@H](C)N1C(=O)CSc1ncccn1", "note": "[Example 160, 1-{4-[2-(1R-Hydroxy-ethyl)-pyrimidin-4-yl]-2R,6S-dimethyl-piperazin-1-yl}-2-(pyrimidin-2-ylsulfanyl)-ethanone]", "melting point": "60 to 70 °C"}, {"smiles": "CC(=O)c1nccc(N2C[C@@H](C)N(c3ccnc([C@@H](C)O)n3)[C@@H](C)C2)n1", "note": "[Example 46, 1-(4-{4-[2-(1R-Hydroxy-ethyl)-pyrimidin-4-yl]-3R,5S-dimethyl-piperazin-1-yl}-pyrimidin-2-yl)-ethanone]", "melting point": "150 to 164 °C"}, {"smiles": "C[C@@H]1CN(c2nccc(-n3cncn3)n2)C[C@H](C)N1c1ccnc([C@@H](C)O)n1", "note": "[Example 196, 1R-{4-[2R,6S-Dimethyl-4-(4-[1,2,4]triazol-1-yl-pyrimidin-2-yl)-piperazin-1-yl]-pyrimidin-2-yl}-ethanol]", "melting point": "181 to 182 °C"}, {"smiles": "O=S(=O)(N1CCCC1)N1CCN(c2ccnc(CO)n2)CC1", "note": "[Example 121, {4-[4-(Pyrrolidine-1-sulfonyl)-piperazin-1-yl]-pyrimidin-2-yl}-methanol]", "melting point": "128 to 131 °C"}, {"smiles": "Cc1cc(C)nc(N2C[C@@H](C)N(c3ccnc([C@@H](C)O)n3)[C@@H](C)C2)n1", "note": "[Example 27, 1R-{4-[4-(4,6-Dimethyl-pyrimidin-2-yl)-2R,6S-dimethyl-piperazin-1-yl]-pyrimidin-2-yl}-ethanol]", "melting point": "150.5 to 152 °C"}, {"smiles": "C[C@@H](O)c1nccc(N2CCc3cc(-c4ccsc4)ccc3C2)n1", "note": "(stereo in doubt) [Example 248, 1-[4-(6-Thiophen-3-yl-3,4-dihydro-1H-isoquinolin-2-yl)-pyrimidin-2-yl]-ethanol]", "melting point": "125.5 to 127.5 °C"}, {"smiles": "C[C@@H](O)c1nccc(N2CCc3cnc(-c4ccccc4)nc3C2)n1", "note": "[Example 87]", "melting point": "72 to 74 °C"}, {"smiles": "C[C@@H](O)c1nccc(N2CCn3c(nnc3-c3cc4ccccc4s3)C2)n1", "note": "[Example 262]", "melting point": "224 to 226 °C"}, {"smiles": "COc1nc(OC)nc(N2[C@H](C)CN(c3ccnc([C@@H](C)O)n3)C[C@@H]2C)n1", "note": "[Example 214, 1R-{4-[4-(4,6-Dimethoxy-[1,3,5]triazin-2-yl)-3R,5S-dimethyl-piperazin-1-yl]-pyrimidin-2-yl}-ethanol]", "melting point": "187 to 188 °C"}, {"smiles": "C[C@@H](OC(=O)Cc1nn(Cc2nc3cc(C(F)(F)F)ccc3s2)c(=O)c2ccccc12)c1nccc(N2CCN(C(=O)/C=C/c3cccs3)CC2)n1", "note": "[Example 276, (E)-[4-Oxo-3-(5-trifluoromethyl-benzothiazol-2-ylmethyl)-3,4-dihydro-phthalazin-1-yl]-acetic acid 1R-{4-[4-(3-thiophen-2-yl-acryloyl)-piperazin-1-yl]-pyrimidin-2-yl}-ethyl ester]", "melting point": "105 to 109 °C"}, {"smiles": "C[C@@H]1CN(c2ccnc(N3CCN(C)CC3)n2)C[C@H](C)N1c1ccnc([C@@H](C)O)n1", "note": "[Example 202, 1R-(4-{2R,6S-Dimethyl-4-[2-(4-methyl-piperazin-1-yl)-pyrimidin-4-yl]-piperazin-1-yl}-pyrimidin-2-yl)-ethanol]", "melting point": "60 to 70 °C"}, {"smiles": "C[C@@H](O)c1nccc(N2C[C@@H]3C[C@H]2CN3S(=O)(=O)c2ccc(Cl)cc2)n1", "note": "[Example 115]", "melting point": "83 to 88 °C"}, {"smiles": "C[C@@H](O)c1nccc(N2CCN(c3nc4ncccc4o3)[C@@H](C)C2)n1", "note": "[Example 20, 1R-[4-(3S-Methyl-4-oxazolo[4,5-b]pyridin-2-yl-piperazin-1-yl)-pyrimidin-2-yl]-ethanol]", "melting point": "158 to 161 °C"}, {"smiles": "C[C@@H]1CN(c2ccnc([C@@H](C)O)n2)C[C@H](C)N1C(=O)c1cc2cnccc2o1", "note": "[Example 132, Furo[3,2-c]pyridin-2-yl-{4-[2-(1R-hydroxy-ethyl)-pyrimidin-4-yl]-2R,6S-dimethyl-piperazin-1-yl}-methanone]", "melting point": "142 to 143 °C"}, {"smiles": "C[C@@H](O)c1nccc(N2CCc3nc(C(F)(F)F)ncc3C2)n1", "note": "[Example 255]", "melting point": "130 to 132 °C"}, {"smiles": "C[C@@H](O)c1nccc(N2CCC(=CC(=O)c3ccccc3)CC2)n1", "note": "[Example 179]", "melting point": "44 to 59 °C"}, {"smiles": "C[C@@H](O)c1nccc(N2C[C@@H]3C[C@H]2CN3S(=O)(=O)c2cccs2)n1", "note": "[Example 116]", "melting point": "84 to 86 °C"}, {"smiles": "Cc1cc(C)nc(N2[C@H](C)CN(c3ccnc([C@@H](C)O)n3)C[C@@H]2C)n1", "note": "[Example 66, 1R-{4-[4-(4,6-Dimethyl-pyrimidin-2-yl)-3R,5S-dimethyl-piperazin-1-yl]-pyrimidin-2-yl}-ethanol]", "melting point": "141.5 to 142.5 °C"}, {"smiles": "C[C@@H](O)c1nccc(N2CCc3c(c(=O)n(-c4cnc5ccccc5n4)n3C)C2)n1", "note": "[Example 75, (R)-5-[2-(1-Hydroxy-ethyl)-pyrimidin-4-yl]-1-methyl-2-quinoxalin-2-yl-1,2,4,5,6,7-hexahydro-pyrazolo[4,3-c]pyridin-3-one]", "melting point": "217 to 219 °C (dec.)"}, {"smiles": "C[C@@H](O)c1nccc(N2CCN(c3ccnc(CO)n3)[C@@H](C)C2)n1", "note": "[Example 37, 1R-{4-[4-(2-Hydroxymethyl-pyrimidin-4-yl)-3S-methyl-piperazin-1-yl]-pyrimidin-2-yl}-ethanol]", "melting point": "178 to 181 °C"}, {"smiles": "C[C@@H](O)c1nccc(N2CCc3nc(-c4ccncc4)ncc3C2)n1", "note": "[Example 258]", "melting point": "144 to 148 °C"}, {"smiles": "C[C@@H](O)c1nccc(N2CCN(c3ccnc([C@@H](C)O)n3)[C@@H](C)C2)n1", "note": "[Example 38, 1R-(4-{4-[2-(1R-Hydroxy-ethyl)-pyrimidin-4-yl]-2S-methyl-piperazin-1-yl}-pyrimidin-2-yl)-ethanol]", "melting point": "158 to 160 °C"}, {"smiles": "C[C@@H](O)c1nccc(N2CCc3nc(N)ncc3C2)n1", "note": "[Example 256]", "melting point": "208 to 210 °C"}, {"smiles": "C[C@@H](O)c1nccc(N2CCC(=C(c3ccccc3)c3ccccc3)CC2)n1", "note": "[Example 180]", "melting point": "108 to 109 °C"}, {"smiles": "C[C@@H]1CN(c2ccnc(-c3cccnc3)n2)C[C@H](C)N1c1ccnc([C@@H](C)O)n1", "note": "[Example 201, 1R-{4-[2R,6S-Dimethyl-4-(2-pyridin-3-yl-pyrimidin-4-yl)-piperazin-1-yl]-pyrimidin-2-yl}-ethanol]", "melting point": "61 to 70 °C"}, {"smiles": "C[C@@H](O)c1nccc(N2CCc3c(nc(N)nc3-c3ccccc3)C2)n1", "note": "[Example 90]", "melting point": "225 to 228 °C (dec.)"}, {"smiles": "C[C@@H]1CN(c2nc3ncccc3o2)C[C@H](C)N1c1ccnc([C@@H](C)O)n1", "note": "[Example 31, 1R-[4-(2R,6S-Dimethyl-4-oxazolo-[4,5-b]pyridin-2-yl-piperazin-1-yl)-pyrimidin-2-yl]-ethanol]", "melting point": "231 to 233 °C"}, {"smiles": "C[C@@H](O)c1nccc(N2CCc3ncncc3C2)n1", "note": "[Example 253]", "melting point": "79 to 82 °C"}, {"smiles": "C[C@@H](O)c1nccc(N2CCn3c(nnc3-c3ccc4nccnc4c3)C2)n1", "note": "[Example 261]", "melting point": "212 to 215 °C"}, {"smiles": "C[C@@H](OC(=O)Cc1nn(Cc2nc3cc(C(F)(F)F)ccc3s2)c(=O)c2ccccc12)c1nccc(N2CCN(c3cnc4ccccc4n3)CC2)n1", "note": "[Example 277, (E)-[4-Oxo-3-(5-trifluoromethyl-benzothiazol-2-ylmethyl)-3,4-dihydro-phthalazin-1-yl]-acetic acid 1R-[4-(4-quinoxalin-2-yl-piperazin-1-yl)-pyrimidin-2-yl]-ethyl ester]", "melting point": "108 to 112 °C"}, {"smiles": "C[C@@H](O)c1nccc(N2CCN(Cc3ccccn3)CC2)n1", "note": "[Example 182, (R)-1-[4-(4-Pyridin-2-ylmethyl-piperazin-1-yl)-pyrimidin-2-yl]-ethanol]", "melting point": "68 to 70 °C"}, {"smiles": "C[C@@H](O)c1nccc(N2CCn3c(nnc3-c3ccccc3)C2)n1", "note": "[Example 260]", "melting point": "161 to 164 °C"}, {"smiles": "C[C@@H](O)c1nccc(N2CCn3c(nnc3-c3ccc(-c4ccccc4)cc3)C2)n1", "note": "[Example 263]", "melting point": "123 to 125 °C"}, {"smiles": "Cc1nc2c(c(-c3ccccc3)n1)CCN(c1ccnc([C@@H](C)O)n1)C2", "note": "[Example 86, (R)-1-[4-(2-Methyl-4-phenyl-5,8-dihydro-6H-pyrido[3,4-d]pyrimidin-7-yl)-pyrimidin-2-yl]ethanol]", "melting point": "114 to 116 °C"}, {"smiles": "COc1nc(C)nc(N2[C@H](C)CN(c3ccnc([C@@H](C)O)n3)C[C@@H]2C)n1", "note": "[Example 213, 1R-{4-[4-(4-Methoxy-6-methyl-[1,3,5]triazin-2-yl)-3R,5S-dimethylpiperazin-1-yl]-pyrimidin-2-yl}-ethanol]", "melting point": "161 to 162 °C"}, {"smiles": "Cc1nc2c(c(N3CCc4ccccc43)n1)CCN(c1ccnc([C@@H](C)O)n1)C2", "note": "[Example 99]", "melting point": "128 to 131 °C"}, {"smiles": "C[C@@H]1CN(c2nc3cccnc3o2)C[C@H](C)N1c1ccnc([C@@H](C)O)n1", "note": "[Example 33, 1R-[4-(2R,6S-Dimethyl-4-oxazolo[5,4-b]pyridin-2-yl-piperazin-1-yl)-pyrimidin-2-yl]-ethanol]", "melting point": "204 to 207 °C"}, {"smiles": "Cc1nc(C)nc(N2[C@H](C)CN(c3ccnc([C@@H](C)O)n3)C[C@@H]2C)n1", "note": "[Example 242, 1R-{4-[4-(4,6-Dimethyl-[1,3,5]triazin-2-yl)-3R,5S-dimethyl-piperazin-1-yl]-pyrimidin-2-yl}-ethanol]", "melting point": "157 to 159 °C"}, {"smiles": "C[C@@H]1CN(c2ncnc(-c3ccccc3)n2)C[C@H](C)N1c1ccnc([C@@H](C)O)n1", "note": "[Example 215]", "melting point": "133 to 134 °C"}, {"smiles": "Cc1nc2c(c(Oc3ccccc3)n1)CCN(c1ccnc([C@@H](C)O)n1)C2", "note": "[Example 97]", "melting point": "156 to 158 °C"}, {"smiles": "C[C@@H](O)c1nccc(N2CCn3c(nnc3-c3nc4ccccc4s3)C2)n1", "note": "[Example 259, (R)-1-[4-(3-Benzothiazol-2-yl-5,6-dihydro-8H-[1,2,4]triazolo[4,3-a]pyrazin-7-yl)-pyrimidin-2-yl]-ethanol]", "melting point": "216.5 to 218.5 °C"}, {"smiles": "CC(=O)c1nccc(N2C[C@@H](C)N(c3ccnc(C(C)=O)n3)[C@@H](C)C2)n1", "note": "[Example 63, 1-{4-[4-(2-Acetyl-pyrimidin-4-yl)-2R*,6S*-dimethyl-piperazin-1-yl]-pyrimidin-2-yl}-ethanone]", "melting point": "> 235 °C (dec.)"}]}]}
